Source: patent US7705203B2, “Benzoate inductible promoters” (Purdue Research Foundation, priority 2002, dated 2010)

Tests used:
bphA gene promoter = assay: bphA promoter-GFP fusions, benzoic acid-dependent GFP expression; format: cell-based, Aspergillus nidulans strain GR5; details: 8 mM benzoic acid, 5 hours; full promoter (1.8 kbp) and FR6 (0.4 kbp)
Description: In order to determine the minimal promoter length capable of retaining benzoic acid inducibility, promoter fusions to the Green Fluorescent Protein (GFP) gene were prepared. The full bphA promoter and shorter versions of it were PCR amplified using primers BPHPFwd (5′-[…]-3′, SEQ ID NO:19), BPHFR6 (5′-[…]-3′, SEQ ID NO:20), BPH331 (5′-[…]-3′, SEQ ID NO:21), and BPHPRev (5′-[…]-3′, SEQ ID NO:22). These primers introduced HindIII restriction sites (underlined) at both ends, which allowed cloning of the fragments upstream of the GFP gene contained within the pEBFP vector (Clontech, Palo Alto, Calif.).
The promoter-GFP fusions were called pBPH-1847-GFP, pBPH-531-GFP, and pBPH331-GFP, respectively. The selectable marker Pyr4 gene from Neurospora crassa, driven by its own promoter, was used to select putative A. nidulans transformed clones. The selectable marker was PCR-amplified from the pBS-Pyr4 vector using primers PyrEcoF (5′-[…]-3′, SEQ ID NO:23), and PyrEcoR (5′-[…]-3′, SEQ ID NO:24), which introduced EcoRI restriction sites (underlined) on both ends of the product. […]
Aspergillus nidulans GR5 protoplasts were prepared according to Aramayo and Timberlake ((1993) EMBO J. 12: 2039-2048), with some modifications. […] Concentration of protoplasts was determined using a hemacytometer, and adjusted to 10^8 protoplasts per mL. […]

bzuA = assay: RNA blots of bzuA expression; format: cell-based, A. nidulans; details: benzoic acid in the media
Text: On the other hand, while N. crassa also contains a bphA homolog, there is no current information available as to its response to benzoic acid.

BRE = assay: Activation of BRE fused to GFP in fungal protoplasts (surface receptor test); format: cell-based
Description: While not necessary to understand to practice the invention, a more complicated mechanism of induction may include a surface receptor that binds to benzoate and which then initiates either some kind of signal transduction cascade or the release of a TF that then culminates in the activation of the BPH promoter (FIGS. 12C and D). The hypothesis of a surface receptor was tested by using the p-NH2-benzoate coupled to agarose (as described above) as a non-cleavable external probe. Fungal protoplasts containing the BRE fused to GFP were then prepared, and activation of the BRE (production of the GFP marker) by addition of the agarose-immobilized benzoate derivative to the fungal protoplasts was scored. […] In order to investigate whether the disparity of size between the larger agarose beads and fungal protoplasts may have caused steric problems in binding of the inducer, smaller ligands still incapable of uptake are constructed and utilized to confirm a non-membrane surface location.
The hypothesis of a surface receptor was tested by using the p-NH2-benzoate coupled to agarose (as described above) as a non-cleavable external probe. Fungal protoplasts containing the BRE fused to GFP were then prepared, and activation of the BRE (production of the GFP marker) by addition of the agarose-immobilized benzoate derivative to the fungal protoplasts was scored. […]

For `O=C(O)c1ccccc1` [benzoic acid], the “GFP expression from bphA promoter-GFP fusions” value (bphA gene promoter) was “able to induce GFP expression only in the presence of the inducer”, the “expression of bzuA” value (bzuA) was “upregulated” and the “GFP fluorescence in the BRE-GFP transformed line” value (BRE) was “induced GFP fluorescence”.
